Data taken from US11220524B2, “Selective inhibitors of protein arginine methyltransferase 5 (PRMT5)” (PRELUDE THERAPEUTICS, INCORPORATED, priority 2017, dated 2022).
Converted amounts (≈) assume the structure as drawn. Where a name gives a salt, the structure may show the parent alone. Read-outs that look alike come from different tables or passages of the source.

Assays:
PRMT5/MEP50 complex = PRMT5/MEP50 complex (Homo sapiens (Human), UniProt O14744); experiment: Biochemical assay: PRMT5/MEP50 methylation of histone H2A with 3H-SAM, filter plate scintillation
Method in brief: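 5 nM PRMT5/MEP50 preincubated with compound 15–20 min at room temperature, with 5 μM histone H2A as substrate; reaction started with 1 μM 3H-SAM and run 60 min at 30 °C. TCA-stopped, filter-captured methylation counted by scintillation; IC50 from 4-parameter Hill fit.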

[1] = tested on: Symmetric Di-Methyl Arginine (sDMA) in Granta-519 cells; experiment: Western blot for symmetric di-methyl arginine (sDMA) marks in Granta cells, 3 days treatment; assay type: cell-based; settings: Homo sapiens, 3 days
Experimental: Cell Treatment and Western Blotting for Detecting Symmetric Di-Methyl Arginine (sDMA) and Histone H3R8 Dimethyl Symmetric (H3R8me2s) Marks
Initial compounds screening in A549 cells: Compounds were dissolved in DMSO to make 10 mM stock and further diluted to 0.1, and 1 mM. A549 cells were maintained in PRMI 1640 (Corning Cellgro, Catalog #: 10-040-CV) medium supplemented with 10% v/v FBS (GE Healthcare, Catalog #: SH30910.03). One day before experiment, 1.25×10^5 cells were seeded in 6 well plate in 3 mL medium and incubated overnight. The next day, medium was changed and 3 uL of compound solution was added (1:1,000 dilution, 0.1 and 1 uM final concentration; DMSO concentration: 0.1%), and incubated for 3 days. Cells incubated with DMSO was used as a vehicle control. Cells were washed once with PBS, trypsinized in 150 uL 0.25% Trypsin (Corning, Catalog #: 25-053-CI), neutralized with 1 mL complete medium, transferred to microcentrifuge tubes and collected. Cell pellet was then resuspended in 15 uL PBS, lysed in 4% SDS, and homogenized by passing through homogenizer column (Omega Biotek, Catalog #: HCR003). Total protein concentrations were determined by BCA assay (ThermoFisher Scientific, Catalog #: 23225). Lysates were mixed with 5× Laemmli buffer and boiled for 5 min. Forty ug of total protein was separated on SDS-PAGE gels (Bio-Rad, catalog #: 4568083, 4568043), transferred to PVDF membrane, blocked with 5% dry milk (Bio-Rad, Catalog #: 1706404) in TBS with 0.1% v/v Tween 20 (TBST) for 1 hour at room temperature (RT), and incubated with primary antibodies (sDMA: Cell signaling, Catalog #: 13222, 1:3,000; H3R8me2s: Epigentek, Catalog #: A-3706-100, 1:2,000; β-Actin: Abcam, Catalog #: ab8227, 1:10,000) in 5% dry milk in TBST at 4° C. for overnight. The next day, membranes were washed with TBST, 5×5 min, and incubated withhP conjugated seconded antibody (GE Healthcare; Catalog #: NA934-1ML; 1:5,000) for 2 hours at RT, followed by 5×5 min washes with TBST, and incubation with ECL substrates (Bio-Rad, Catalog #: 1705061, 1705062). Chemiluminescent signal was captured with FluoChem HD2 imager (Proteinsimple) and analyzed by ImageJ.
Cells incubated with DMSO was used as a vehicle control. Cells were harvested and subjected to western blot analysis as described above. SmD3me2s and H3R8me2s bands were quantified by ImageJ. Signals were normalized to β-Actin and DMSO control. IC50 values were calculated using Graphpad Prism.

Granta-519 cells = experiment: Cell proliferation assay on Granta-519 cells (CCK-8, day 10); assay type: cell-based; settings: Homo sapiens
Experimental: Cell Proliferation Assay to Determine IC50 on Granta-519 Cells
Granta-519 cells were maintained in PRMI 1640 (Corning Cellgro, Catalog #: 10-040-CV) medium supplemented with 10% v/v FBS (GE Healthcare, Catalog #: SH30910.03). Compounds were dissolved in DMSO to make 10 mM stocks and stored at −20° C. Nine-point, 3-fold serial dilutions were made with DMSO with top concentration at 1 mM (working stocks).
On day of experiment, compound working stocks were further diluted at 1:50 with fresh medium in 96 well plate, and 10 μL of diluted drugs were added to a new 96 well plate for proliferation assay. Cells growing at exponential phase were spun down at 1500 rpm for 4 min and resuspend in fresh medium to reach a density of 0.5×10^6 cells/ml. 200 ul of cells were added to 96 well plate containing diluted drugs and incubated for 3 days. DMSO was used a vehicle control.
One day 3, 10 μL of Cell Counting Kit-8 (CCK-8, Jojindo, CK04-13) solution was added to a new 96 well plate. Cells incubated with drugs for 3 days were resuspended by pipetting up and down, and 100 μL of cells were transferred to 96 well plate containing CCK-8 reagent to measure viable cells. Plates were incubated in C02 incubator for 2 hours and OD450 values were measured with a microplate reader (iMark microplate reader, Bio-Rad).
For re-plating, compound working stocks were diluted at 1:50 with fresh medium and 10 μL of diluted drugs were added to anew 96 well plate. Cells from Day 3plate (50 ul) were added to 96 well plate containing fresh drug and additional 150 of fresh medium was added to reach 200 ul volume. Plate was returned to CO2incubator and incubated for 3more days. Viable cells measurement and re-plating were repeated on day 6, and the final viable cells measurement was taken on day 10.
Percentage of viable cells, relative to DMSO vehicle control, were calculated and plotted in Graphpad Prism ([Inhibitor] vs. normalized response-Variable slope) to determine proliferation IC50 values on day 10.

physchem = experiment: physchem
Experimental: Compounds were first dispersed in freshly prepared FaSSIF (http://biorelevant.com/site_media/upload/documents/How_to_make_FaSSIF_FeSSIF_and_FaSSGF.pdf) buffer in 1 mg/mL respectively, and the standard samples were prepared by preparing 1 mg/mL of test compounds in DMSO. The compounds were then sufficient mixed by vortex mixer for 30 sec, and agitated at 25° C. using 300 rpm form 4 hour in thermo mixer. After incubation, the prepared samples were centrifuged at 10000 rpm for 10 min to remove the undissolved solid, the resulting supernatants were applied to HPLC. The actual concentrations of the compounds were evaluated by measuring the peak area, and the solubility (S) of compounds was calculated according to following equation: S=Csmp=Cstd*(Asmp/Astd)*(Vstd/Vsmp) Where C is the sample concentration in μg/mL, A is the peak area, and V is the injection volume.

[2] = histone H2A 5 μM, SAM 1 μM, enzyme 5 nM, read-out: PRMT5/MEP50 IC50
[3] = 240 h, Granta-519 cell line, read-out: Proliferation IC50

PRMT5/MEP50 complex, sequence (O14744 whole entry): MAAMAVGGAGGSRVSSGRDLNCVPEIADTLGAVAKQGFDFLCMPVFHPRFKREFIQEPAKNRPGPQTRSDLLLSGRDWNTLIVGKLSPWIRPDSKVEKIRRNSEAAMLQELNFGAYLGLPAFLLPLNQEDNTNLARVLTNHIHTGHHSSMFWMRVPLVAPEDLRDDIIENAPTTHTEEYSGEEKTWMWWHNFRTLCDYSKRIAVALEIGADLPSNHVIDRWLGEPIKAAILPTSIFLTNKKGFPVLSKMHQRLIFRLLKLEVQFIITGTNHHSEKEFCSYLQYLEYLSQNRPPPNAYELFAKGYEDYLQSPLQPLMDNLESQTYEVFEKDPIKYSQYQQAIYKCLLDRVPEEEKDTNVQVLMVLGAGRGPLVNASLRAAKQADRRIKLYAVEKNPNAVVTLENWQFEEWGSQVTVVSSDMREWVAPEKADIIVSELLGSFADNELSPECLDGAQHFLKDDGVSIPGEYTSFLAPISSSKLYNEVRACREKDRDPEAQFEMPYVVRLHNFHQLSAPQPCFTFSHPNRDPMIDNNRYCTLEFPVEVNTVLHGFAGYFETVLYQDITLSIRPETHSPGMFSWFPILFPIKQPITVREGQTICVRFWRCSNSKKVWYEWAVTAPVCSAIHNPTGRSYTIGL
PRMT5/MEP50 complex, sequence (Q9BQA1 whole entry partner): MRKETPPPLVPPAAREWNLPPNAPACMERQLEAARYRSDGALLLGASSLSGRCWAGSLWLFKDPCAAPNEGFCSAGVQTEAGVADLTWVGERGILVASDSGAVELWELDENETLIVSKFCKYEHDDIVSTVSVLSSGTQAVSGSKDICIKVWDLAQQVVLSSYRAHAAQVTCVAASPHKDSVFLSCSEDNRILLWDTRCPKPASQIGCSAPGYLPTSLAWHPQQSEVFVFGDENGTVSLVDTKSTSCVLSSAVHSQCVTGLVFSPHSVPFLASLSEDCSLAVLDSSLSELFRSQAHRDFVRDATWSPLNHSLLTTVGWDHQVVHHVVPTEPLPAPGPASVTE

Which IC50 (PRMT5/MEP50 complex; biochemical potency, read-out: PRTMT5/MEP50 IC50) does the source give for `CO/N=c1\nc[nH]c2c1ccn2[C@@H]1C[C@H](CCc2ccc3ccc(NCC4CC4)nc3c2)[C@@H](O)[C@H]1O` [Example 90-B, 7-((1R,2S,3R,4S)-4-(2-(2-((cyclopropylmethyl)amino)quinolin-7-yl)ethyl)-2,3-dihydroxycyclopentyl)-1,7-dihydro-4H-pyrrolo[2,3-d]pyrimidin-4-one O-methyl oxime] here?
Its IC50 is 0.82 nM.

And the IC50 ([1]; Granta-519, 72 h, Granta cell line)?
Its IC50 is 28 nM.

What about the IC50 (Granta-519 cells; Granta-519, 240 h, Granta cell line, read-out: Prolif. IC50) of the same compound?
Its IC50 is 229 nM.

Which solubility at 4 h (physchem; 25 °C, fassif, thermodynamic from solid) does the source give for `CO/N=c1\[nH]cnc2c1ncn2[C@@H]1O[C@H]([C@](C)(O)c2ccc(Cl)c(Cl)c2)[C@@H](O)[C@H]1O` [Example 92A, (2S,3S,4R,5R)-2-[(1R)-1-(3,4-dichlorophenyl)-1-hydroxy-ethyl]-5-[(6Z)-6-methoxyimino-1H-purin-9-yl]tetrahydrofuran-3,4-diol] here?
Its solubility at 4 h is 54.7 µg/mL (≈ 120 µM).

Which IC50 (PRMT5/MEP50 complex; [2]) does the source give for `CCO/N=c1/nc[nH]c2c1ccn2[C@@H]1O[C@H]([C@](C)(O)c2ccc(Cl)c(Cl)c2)[C@@H](O)[C@H]1O` [Example 99, 7-((2R,3R,4S,5S)-5-((R)-1-(3,4-dichlorophenyl)-1-hydroxyethyl)-3,4-dihydroxytetrahydrofuran-2-yl)-1,7-dihydro-4H-pyrrolo[2,3-d]pyrimidin-4-one O-ethyl oxime] here?
The IC50 was 2.4 nM.

What about the IC50 ([1]; 72 h, Granta-519 cell line) of the same compound?
Its IC50 is 8.4 nM.

What about the IC50 (Granta-519 cells; [3]) of the same compound?
Its IC50 is 94 nM.

Which results are given for `O[C@@H]1[C@H](O)[C@@H]([C@H](O)c2ccc(Cl)c(Cl)c2)O[C@H]1n1ccc2/c(=N/OCC(F)(F)F)nc[nH]c21` [Example 103, 7-((2R,3R,4S,5R)-5-((R)-(3,4-dichlorophenyl)(hydroxy)methyl)-3,4-dihydroxytetrahydrofuran-2-yl)-1,4a,7,7a-tetrahydro-4H-pyrrolo[2,3-d]pyrimidin-4-one 0-(2,2,2-trifluoroethyl) oxime]?
IC50 (PRMT5/MEP50 complex; [2]): 29.6 nM; IC50 ([1]; 72 h, Granta-519 cell line): 57.9 nM; IC50 (Granta-519 cells; [3]): 62 nM

With `C[C@@](O)(c1ccc(Cl)c(Cl)c1)[C@H]1O[C@@H](n2cnc3/c(=N/O)nc[nH]c32)[C@H](O)[C@@H]1O` [Example 108, 9-((2R,3R,4S,5S)-5-((R)-1-(3,4-dichlorophenyl)-1-hydroxyethyl)-3,4-dihydroxytetrahydrofuran-2-yl)-3,9-dihydro-6H-purin-6-one oxime] as the compound, how does the IC50 (PRMT5/MEP50 complex) read?
The IC50 was 9.6 nM.

What about the IC50 ([1]; 72 h, Granta-519 cell line) of the same compound?
Its IC50 is 131 nM.

What about the IC50 (Granta-519 cells; [3]) of the same compound?
Its IC50 is 415 nM.

Which “FaSSIF solubility of positive controls” value (physchem; positive controls in this experiment) does the source give for `CC(=O)CC(c1ccccc1)c1c(O)c2ccccc2oc1=O` (stereo not shown) [Warfarin, reference compound] here?
Its value is 10 to 25 µg/mL.

Which results are given for `N/N=c1/nc[nH]c2c1ccn2[C@@H]1O[C@H]([C@H](O)c2ccc(Cl)cc2)[C@@H](O)[C@H]1O` [compound 20, 7-[(2R,3R,4S,5R)-5-[(R)-(4-chlorophenyl)-hydroxy-methyl]-3,4-dihydroxy-tetrahydrofuran-2-yl]-1H-pyrrolo[2,3-d]pyrimidin-4-one hydrazone]?
IC50 (PRMT5/MEP50 complex; [2]): 0.6 nM; IC50 ([1]; 72 h, Granta-519 cell line): 120000 nM; IC50 (Granta-519 cells; [3]): 98 nM

Which results are given for `O/N=c1/nc[nH]c2c1ccn2[C@@H]1O[C@H]([C@H](O)c2ccc(Cl)cc2)[C@@H](O)[C@H]1O` [compound 37, 7-[(2R,3R,4S,5R)-5-[(R)-(4-chlorophenyl)-hydroxy-methyl]-3,4-dihydroxy-tetrahydrofuran-2-yl]-1H-pyrrolo[2,3-d]pyrimidin-4-one oxime hydrochloride]?
IC50 (PRMT5/MEP50 complex; [2]): 2.4 nM; IC50 ([1]; 72 h, Granta-519 cell line): 8 nM; IC50 (Granta-519 cells; [3]): 22 nM

What does the source list for `CO/N=c1\nc[nH]c2c1ccn2[C@@H]1O[C@H]([C@](C)(O)c2ccc(Cl)c(Cl)c2)[C@@H](O)[C@H]1O` [compound 61, 7-((2R,3R,4S,5S)-5-((R)-1-(3,4-dichlorophenyl)-1-hydroxyethyl)-3,4-dihydroxytetrahydrofuran-2-yl)-1,7-dihydro-4H-pyrrolo[2,3-d]pyrimidin-4-one O-methyl oxime]?
IC50 (PRMT5/MEP50 complex; [2]): 2.6 nM; IC50 ([1]; 72 h, Granta-519 cell line): 33 nM; IC50 (Granta-519 cells; [3]): 47 nM

What does the source list for `CO/N=c1/nc[nH]c2c1ccn2[C@@H]1O[C@H]([C@H](O)c2ccc(Cl)c(F)c2)[C@@H](O)[C@H]1O` [compound 62, 7-((2R,3R,4S,5R)-5-((R)-(4-chloro-3-fluorophenyl)(hydroxy)methyl)-3,4-dihydroxytetrahydrofuran-2-yl)-1,7-dihydro-4H-pyrrolo[2,3-d]pyrimidin-4-one O-methyl oxime]?
IC50 (PRMT5/MEP50 complex; [2]): 8.6 nM; IC50 ([1]; 72 h, Granta-519 cell line): 45 nM; IC50 (Granta-519 cells; [3]): 63 nM

With `CO/N=c1\nc[nH]c2c1ccn2[C@@H]1O[C@H]([C@H](O)c2ccc(Cl)c(Cl)c2)[C@@H](O)[C@H]1O` [compound 69, 7-((2R,3R,4S,5R)-5-((R)-(3,4-dichlorophenyl)(hydroxy)methyl)-3,4-dihydroxytetrahydrofuran-2-yl)-1,7-dihydro-4H-pyrrolo[2,3-d]pyrimidin-4-one O-methyl oxime hydrochloride] as the compound, how does the IC50 (PRMT5/MEP50 complex; [2]) read?
The IC50 was 1.8 nM.

What about the IC50 ([1]; 72 h, Granta-519 cell line) of the same compound?
The IC50 was 28 nM.

And the IC50 (Granta-519 cells; [3])?
The IC50 was 32 nM.

Which results are given for `CO/N=c1\nc[nH]c2c1ccn2[C@@H]1O[C@H]([C@H](O)c2ccc(F)c(F)c2)[C@@H](O)[C@H]1O` [compound 70, 7-((2R,3R,4S,5R)-5-((R)-(3,4-difluorophenyl)(hydroxy)methyl)-3,4-dihydroxytetrahydrofuran-2-yl)-1,7-dihydro-4H-pyrrolo[2,3-d]pyrimidin-4-one O-methyl oxime]?
IC50 (PRMT5/MEP50 complex; [2]): 10.2 nM; IC50 ([1]; 72 h, Granta-519 cell line): 48 nM; IC50 (Granta-519 cells; [3]): 130 nM

What does the source list for `CCO/N=c1/[nH]cnc2c1ccn2[C@@H]1O[C@H]([C@H](O)c2ccc(Cl)c(Cl)c2)[C@@H](O)[C@H]1O` [compound 82, 7-((2R,3R,4S,5R)-5-((R)-(3,4-dichlorophenyl)(hydroxy)methyl)-3,4-dihydroxytetrahydrofuran-2-yl)-3,7-dihydro-4H-pyrrolo[2,3-d]pyrimidin-4-one O-ethyl oxime]?
IC50 (PRMT5/MEP50 complex; [2]): 3.9 nM; IC50 ([1]; 72 h, Granta-519 cell line): 11 nM
